In ChEMBL document CHEMBL3822396 (J Med Chem, 2016):
Each block holds one compound with its values, some of them ahead of it. Activity calls are given as the source filed them. No cut-off for these calls is given here.

Legend:
[1] = target: Vascular endothelial growth factor receptor 2 (Homo sapiens, UniProt P35968)
[2] = Permeability of the compound; format: ADME; conditions: not told; read-out: permeability
[3] = target: Mitogen-activated protein kinase 14 (Homo sapiens, UniProt Q16539)
[4] = AUC in Sprague-Dawley rat at 2 mg/kg, po administered through cassette dosing by LC-MS/MS analysis; format: ADME, organism-based; conditions: in vivo
[5] = Cmax in Sprague-Dawley rat at 2 mg/kg, po administered through cassette dosing as by LC-MS/MS analysis; format: ADME, organism-based; design: dose 2 mg/kg, route oral; conditions: in vivo
Intestinal mucosa [6] = assay: Inhibition of IL6 production in intestinal mucosa derived from Crohn's disease patient at 1 uM measured after 24 hrs by sandwich ELISA; format: functional, tissue-based; conditions: Homo sapiens
Intestinal mucosa [7] = assay: Inhibition of TNFalpha production in intestinal mucosa derived from Crohn's disease patient at 1 uM measured after 24 hrs by sandwich ELISA; format: functional, tissue-based; conditions: Homo sapiens
Intestinal mucosa [8] = assay: Inhibition of IL6 production in intestinal mucosa derived from ulcerative colitis patient at 1 uM measured after 24 hrs by sandwich ELISA; format: functional, tissue-based; conditions: Homo sapiens
Intestinal mucosa [9] = assay: Inhibition of TNFalpha production in intestinal mucosa derived from ulcerative colitis patient at 1 uM measured after 24 hrs by sandwich ELISA; format: functional, tissue-based; conditions: Homo sapiens

Chain of Mitogen-activated protein kinase 14 (Q16539 whole entry): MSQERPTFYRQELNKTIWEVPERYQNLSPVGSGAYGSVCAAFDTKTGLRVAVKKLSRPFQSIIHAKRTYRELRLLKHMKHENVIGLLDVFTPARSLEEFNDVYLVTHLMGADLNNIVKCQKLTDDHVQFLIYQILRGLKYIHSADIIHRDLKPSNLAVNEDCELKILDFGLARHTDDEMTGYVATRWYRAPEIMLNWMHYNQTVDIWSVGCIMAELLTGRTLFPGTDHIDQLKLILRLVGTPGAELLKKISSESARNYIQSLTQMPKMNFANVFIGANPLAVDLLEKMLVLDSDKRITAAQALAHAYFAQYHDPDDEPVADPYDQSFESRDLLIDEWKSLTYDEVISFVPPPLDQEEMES
Chain of Vascular endothelial growth factor receptor 2 (P35968 whole entry): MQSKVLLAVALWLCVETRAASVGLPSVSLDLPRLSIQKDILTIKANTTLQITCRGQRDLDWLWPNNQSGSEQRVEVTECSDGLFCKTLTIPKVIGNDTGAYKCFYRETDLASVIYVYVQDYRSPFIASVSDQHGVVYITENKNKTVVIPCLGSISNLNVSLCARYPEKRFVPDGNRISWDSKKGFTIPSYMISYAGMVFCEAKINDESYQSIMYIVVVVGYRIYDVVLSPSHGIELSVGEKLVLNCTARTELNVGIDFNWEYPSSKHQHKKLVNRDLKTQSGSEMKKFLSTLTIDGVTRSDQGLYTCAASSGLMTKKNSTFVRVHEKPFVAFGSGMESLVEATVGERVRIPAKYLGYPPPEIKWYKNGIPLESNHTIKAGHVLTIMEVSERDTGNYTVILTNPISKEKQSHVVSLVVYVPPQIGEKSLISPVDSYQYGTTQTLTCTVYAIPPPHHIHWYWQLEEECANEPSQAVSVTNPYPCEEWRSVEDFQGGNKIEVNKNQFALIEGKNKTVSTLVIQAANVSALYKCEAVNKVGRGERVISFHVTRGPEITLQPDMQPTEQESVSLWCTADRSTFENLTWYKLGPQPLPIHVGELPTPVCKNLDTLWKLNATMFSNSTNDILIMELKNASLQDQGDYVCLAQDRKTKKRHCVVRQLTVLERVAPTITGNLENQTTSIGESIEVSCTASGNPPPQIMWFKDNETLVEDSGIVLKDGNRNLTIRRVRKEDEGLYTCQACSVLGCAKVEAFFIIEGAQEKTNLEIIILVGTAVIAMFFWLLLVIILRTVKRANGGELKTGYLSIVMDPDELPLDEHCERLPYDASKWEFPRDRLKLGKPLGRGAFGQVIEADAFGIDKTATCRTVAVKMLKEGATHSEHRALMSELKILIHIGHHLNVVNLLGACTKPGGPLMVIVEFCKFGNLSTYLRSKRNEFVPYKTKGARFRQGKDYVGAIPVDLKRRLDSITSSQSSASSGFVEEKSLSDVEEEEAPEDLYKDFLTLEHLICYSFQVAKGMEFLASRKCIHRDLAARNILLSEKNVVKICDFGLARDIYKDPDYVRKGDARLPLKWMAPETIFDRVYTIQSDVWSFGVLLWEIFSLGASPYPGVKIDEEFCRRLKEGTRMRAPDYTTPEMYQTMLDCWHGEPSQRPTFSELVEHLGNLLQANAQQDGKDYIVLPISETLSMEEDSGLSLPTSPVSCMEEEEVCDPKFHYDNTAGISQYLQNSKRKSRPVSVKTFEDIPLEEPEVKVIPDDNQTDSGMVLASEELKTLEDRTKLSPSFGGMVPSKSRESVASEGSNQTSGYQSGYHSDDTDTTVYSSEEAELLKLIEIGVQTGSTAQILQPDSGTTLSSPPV

SMILES: C[C@]12C=CC(=O)C=C1CC[C@@H]1[C@@H]2[C@@H](O)C[C@@]2(C)[C@H]1CC[C@]2(O)C(=O)CO
- inhibition (Intestinal mucosa [6]): Active
- inhibition (Intestinal mucosa [7]): Active
- inhibition (Intestinal mucosa [8]): Active
- inhibition (Intestinal mucosa [9]): Active

SMILES: Cc1ccc(O)cc1Nc1ccnc2ccc(-c3cccnc3)cc12
- Papp [2]: 23 ×10⁻⁶ cm/s

SMILES: Cc1ccc(O)cc1Nc1ccnc2ccc(C(F)(F)F)cc12
- Papp [2]: 49 ×10⁻⁶ cm/s

SMILES: CS(=O)(=O)c1ccc2nccc(Nc3n[nH]c4ccc(F)cc34)c2c1
- AUC [4]: 1700 ng·h/mL
- Cmax [5]: 500 ng/mL

SMILES: Cc1ccc(O)cc1Nc1ccnc2ccccc12
- Papp [2]: 25 ×10⁻⁶ cm/s

SMILES: COc1ccc2nccc(Nc3cc(O)ccc3C)c2c1
- Papp [2]: 23 ×10⁻⁶ cm/s

The next lines start with the values.

- IC50 [1]: > 5 µM
- Papp [2]: 1.5 ×10⁻⁶ cm/s
- IC50 [3]: > 5 µM
SMILES: Cc1ccc(O)cc1Nc1ccnc2ccc(C(=O)NCC3CCOCC3)cc12

- IC50 [1]: > 5 µM
- IC50 [3]: > 5 µM
- AUC [4]: 1100 ng·h/mL
- Cmax [5]: 370 ng/mL
SMILES: CC(C)S(=O)(=O)c1ccc2nccc(Nc3n[nH]c4ccc(F)cc34)c2c1

- Papp [2]: 7.9 ×10⁻⁶ cm/s
SMILES: Cc1ccc(O)cc1Nc1ccnc2ccc(S(C)(=O)=O)cc12 [GW559768X]
